Measured values taken from PubChem BioAssay (NCI).
Several values for one entry are separate records, joined by “and”; a condition that tells them apart may be missing. Identical values can stand only once.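 Test compounds were applied to cells in 96-well plates for 48 hours at 5 doses. Here, GI50 denotes the concentration required for 50% inhibition of growth. Definition used: TGI = concentration required for complete inhibition of growth.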

Experiments:
Assay in all cases: NCI tumour cell line growth inhibition, 48 h
MALME-3M melanoma = system: MALME-3M melanoma
HT29 colon = system: HT29 colon
SK-MEL-28 melanoma = system: SK-MEL-28 melanoma
RXF 393 renal = system: RXF 393 renal
CAKI-1 renal = system: CAKI-1 renal
ACHN renal = system: ACHN renal
SW-620 colon = system: SW-620 colon
K-562 leukemia = system: K-562 leukemia
NCI-H460 lung = system: NCI-H460 lung
RPMI-8226 leukemia = system: RPMI-8226 leukemia

Structure (SMILES)	GI50 (MALME-3M melanoma)	TGI (MALME-3M melanoma)	GI50 (HT29 colon)	TGI (HT29 colon)	GI50 (SK-MEL-28 melanoma)	TGI (SK-MEL-28 melanoma)	GI50 (RXF 393 renal)	TGI (RXF 393 renal)	GI50 (CAKI-1 renal)	TGI (CAKI-1 renal)	GI50 (ACHN renal)	TGI (ACHN renal)	GI50 (SW-620 colon)	TGI (SW-620 colon)	GI50 (K-562 leukemia)	TGI (K-562 leukemia) [µM]	GI50 (NCI-H460 lung)	TGI (NCI-H460 lung)	GI50 (RPMI-8226 leukemia)	TGI (RPMI-8226 leukemia)
C/C1=C\CC[C@@](C)(O)[C@@H]2C[C@H](CC/C(C)=C/CC1)C1(CC1)C(=O)O2	21600 nM	64.8 µM	31400 nM	> 100 µM	18000 nM	41.3 µM	> 100000 nM	> 100 µM	22.2 µM	50.2 µM	34400 nM	> 100 µM	27.1 µM	73.1 µM	13600 nM	46.6	51.5 µM	> 100 µM	20300 nM	46.4 µM
Fc1ccc2nc(-c3cc(-c4ccc5c(c4)OCO5)n[nH]3)[nH]c2c1	2750 nM	> 100 µM	5060 nM	> 37.8 µM	8610 nM	53.2 µM	2810 nM	32.1 µM	2.44 µM	> 55.7 µM	2740 nM	> 25.4 µM	5.68 µM	> 43.1 µM	4350 nM	> 100	4.22 µM	> 40.2 µM	1170 nM	8.26 µM
CCNCCNc1cc(-c2ccc(C#N)cc2)c(C#N)c2nc3ccccc3n12	1800 nM	3.99 µM	3100 nM	9.82 µM	1860 nM	3.72 µM	1740 nM	4.1 µM	3.5 µM	13.5 µM	2340 nM	5.73 µM	2.68 µM	11.1 µM	3130 nM	18.2	2.47 µM	5.66 µM	4780 nM	19.5 µM
CCn1c(-c2nonc2N)nc2ccncc21	> 25000 nM	> 25 µM	> 25000 nM	> 25 µM	> 25000 nM	> 25 µM	> 25000 nM	> 25 µM	> 25 µM	> 25 µM	> 25000 nM	> 25 µM	> 25 µM	> 25 µM	> 25000 nM	> 25	> 25 µM	> 25 µM	> 25000 nM	> 25 µM
C=C1C2Oc3ccccc3C1N(c1ccccc1)O2 (stereo not drawn)	–	> 100 µM	–	67.5 µM	–	> 100 µM	–	> 100 µM	–	> 100 µM	–	> 100 µM	–	> 100 µM	–	> 100	–	55.5 µM	–	> 100 µM
CC(C)(C)NCC(COc1ccc([N+](=O)[O-])cc1)OP(c1ccccc1)c1ccccc1 (stereo not drawn)	–	67 µM	–	> 100 µM	–	> 100 µM	–	> 100 µM	–	> 100 µM	–	> 100 µM	–	> 100 µM	–	> 100	–	> 100 µM	–	35.3 µM
Nc1cc(-c2ccc(Cl)cc2)nn1-c1nnc(/C=C/c2ccco2)c(=O)[nH]1	7440 nM	54.6 µM	6610 nM	> 100 µM	6420 nM	61 µM	9910 nM	34.7 µM	0.842 µM	7.04 µM	3090 nM	17.7 µM	5 µM	> 100 µM	2980 nM	> 48	2.15 µM	15.3 µM	1540 nM	> 48.1 µM
O=C(c1cccs1)C1NO[N+]([O-])=C1c1cccs1 (stereo not drawn)	517 nM	1.19 µM	1940 nM	3.65 µM	2520 nM	6.8 µM	1680 nM	3.42 µM	1.61 µM	3.41 µM	1850 nM	3.56 µM	1.54 µM	3.01 µM	3020 nM	> 100	5.37 µM	13.1 µM	2360 nM	6.2 µM
COc1ccccc1NC(=O)/C(=C/c1ccccc1)C(C)=O	–	> 100 µM	–	> 100 µM	–	> 100 µM	–	53.8 µM	–	> 100 µM	–	> 100 µM	–	> 100 µM	–	> 100	–	> 100 µM	–	> 100 µM
COc1cccc2c(=O)c3c(sc12)c(NCCCNCCO)nc1ccccc13	1640 nM	3.15 µM	1540 nM	3.75 µM	1900 nM	3.46 µM	1460 nM	2.84 µM	1.18 µM	2.5 µM	1350 nM	2.67 µM	1.38 µM	2.9 µM	1420 nM	3.68	1.54 µM	3.15 µM	1730 nM	3.71 µM
Cc1c(C)c(CC(=O)N2CC2)c(C)c(C)c1CC(=O)N1CC1	–	27.1 µM	–	> 75.1 µM	–	37.6 µM	–	12.8 µM	–	32.4 µM	–	25.7 µM	–	> 57.2 µM	–	> 92.7	–	50.2 µM	–	55.5 µM
Cc1cc2c(cc1Cl)S/C(=C/C(=O)O)C(Nc1cccc3nsnc13)=NS2(=O)=O	> 53400 nM	> 65.8 µM	6170 nM	> 63.1 µM	8060 nM	19.4 µM	> 52700 nM	> 68.5 µM	56 µM	> 76.6 µM	> 52300 nM	> 64.9 µM	44.8 µM	> 67.6 µM	70100 nM	> 100	> 39.8 µM	> 65.1 µM	10700 nM	40.6 µM
CCOc1ccc(Nc2c3ccccc3nc3ccccc23)cc1	806 nM and 468 nM	4.1 µM and 3.45 µM	307 nM and 264 nM	1.26 µM and 1.08 µM	855 nM and 378 nM	6.51 µM and 2.32 µM	397 nM and 402 nM	2.25 µM and 2.71 µM	0.359 µM and 0.376 µM	3.32 µM and 1.75 µM	953 nM and 636 nM	3.83 µM and 2.15 µM	0.369 µM and 0.339 µM	5.2 µM and 4.02 µM	316 nM and 61.6 nM	–	0.407 µM and 0.347 µM	3.03 µM and 1.82 µM	1070 nM and 364 nM	4.58 µM and 4.03 µM
COc1ccc(C(=O)c2nc3ccccc3n2CC(=O)c2ccc(Cl)cc2)cc1	1920 nM	> 100 µM	2820 nM	> 100 µM	3020 nM	> 100 µM	2600 nM	> 24.6 µM	53.6 µM	> 100 µM	6400 nM	> 100 µM	1.29 µM	> 100 µM	585 nM	> 100	7.34 µM	> 100 µM	1710 nM	> 23.9 µM
C=CCNC(=O)N(CCC)CCCC(NC(C)=O)C(=O)NCc1ccccc1 (stereo not drawn)	–	> 100 µM	–	> 100 µM	–	> 100 µM	–	> 100 µM	–	> 100 µM	–	> 100 µM	–	> 100 µM	–	> 100	–	> 100 µM	–	> 100 µM
COc1cccc(COc2cc(-n3cnc4ccccc43)sc2C(N)=O)c1	> 25000 nM	> 25 µM	2030 nM	> 25 µM	> 24000 nM	> 25 µM	5690 nM	> 25 µM	> 25 µM	> 25 µM	> 25000 nM	> 25 µM	> 11.1 µM	> 25 µM	> 25000 nM	> 25	9.23 µM	> 25 µM	> 25000 nM	> 25 µM
Cc1ccc(NC(=O)/C(Cc2cc(=O)oc3cc(O)ccc23)=N\NC(=O)C[N+](C)(C)C)cc1C	–	> 100 µM	–	> 100 µM	–	> 100 µM	–	> 100 µM	–	> 100 µM	–	> 100 µM	–	> 100 µM	–	> 100	–	> 100 µM	–	> 100 µM
Cc1ccc(-n2nc(C(C)(C)C)cc2NC(=O)NCc2cc(F)ccc2Oc2ccc3c(cnn3CCO)c2)cc1	396 nM and 305 nM	> 10 µM and 1.73 µM	718 nM and 2440 nM	> 10 µM and 26.6 µM	511 nM and 989 nM	> 20.9 µM	7040 nM and 4640 nM	> 10 µM and 23.7 µM	9.61 µM and 6.5 µM	> 100 µM	4300 nM and 2790 nM	> 56.2 µM	> 10 µM and 6.34 µM	> 100 µM	8.02 nM and 18.5 nM	> 10	> 10 µM and 4.85 µM	> 59.7 µM	3280 nM and 2700 nM	> 10 µM and 28.7 µM
CCCCCCCCCCCC1CC(=O)NCCCN(C)CCCCN(C)CCCN1C (stereo not drawn)	–	3.33 µM	–	2.97 µM	–	3.09 µM	–	3.02 µM	–	3.54 µM	–	3.08 µM	–	2.35 µM	–	0.699	–	2.66 µM	–	4.09 µM
COC(=O)c1ccc2c(c1)C(=O)c1c-2n(CCCN=[N+]=[N-])c(=O)c2cc([N+](=O)[O-])ccc12	63000 nM	> 100 µM	> 100000 nM	> 100 µM	> 100000 nM	> 100 µM	37300 nM	> 100 µM	> 100 µM	> 100 µM	13000 nM	28.7 µM	> 100 µM	> 100 µM	48000 nM	> 100	38.1 µM	> 100 µM	63300 nM	> 100 µM
CC1=NN(C(=O)c2ccncc2)C(=O)C1N=Nc1ccc(F)cc1 (stereo not drawn)	–	> 100 µM	–	> 100 µM	–	> 100 µM	–	> 100 µM	–	> 100 µM	–	> 100 µM	–	> 100 µM	–	> 100	–	> 100 µM	–	> 100 µM
COc1ccc(F)c(F)c1C(=O)c1cnc(NC2CCN(S(C)(=O)=O)CC2)nc1N	1040 nM and 1490 nM	4.79 µM and 5.38 µM	420 nM and 341 nM	7.68 µM and > 9.06 µM	1060 nM and 412 nM	> 27.2 µM and 4.78 µM	286 nM and 149 nM	1.48 µM and 0.423 µM	1.05 µM and 0.232 µM	> 100 µM	439 nM and 272 nM	> 100 µM	0.183 µM and 0.108 µM	> 100 µM	2050 nM and 1950 nM	> 100	0.165 µM and 0.117 µM	> 100 µM	791 nM and 353 nM	4.98 µM and 5.57 µM
O=C(O)c1ccccc1C(=O)c1ccc2c(c1)Cc1ccccc1-2	–	> 100 µM	–	> 100 µM	–	> 100 µM	–	> 100 µM	–	> 100 µM	–	> 100 µM	–	> 100 µM	–	> 100	–	> 100 µM	–	> 100 µM
c1cnn2ncc(-c3ccnc(Nc4ccc5c(c4)OCCO5)n3)c2c1	83.3 nM	0.276 µM	69.1 nM	0.358 µM	54.4 nM	0.199 µM	53.5 nM	0.137 µM	0.0773 µM	> 8.78 µM	54.9 nM	> 25 µM	0.0786 µM	0.383 µM	285 nM	> 25	0.0731 µM	0.258 µM	78.3 nM	0.388 µM
C[C@]12C/C(=C/O)C(=O)C(O)=C1CC[C@@H]1C2CC[C@@]2(C)C1CC[C@@H]2O (stereo partly drawn)	–	46.2 µM	–	65.1 µM	–	48.2 µM	–	36.3 µM	–	76.6 µM	–	72.2 µM	–	> 100 µM	–	82.2	–	48.1 µM	–	64.8 µM
COc1ccc(Nc2nccc(N3CCN(c4c5ccc(Cl)cc5nc5ccc(OC)cc45)CC3)n2)cc1	92000 nM	> 100 µM	6610 nM	> 100 µM	39500 nM	> 100 µM	1780 nM	6.8 µM	8.93 µM	> 100 µM	6860 nM	> 100 µM	7.19 µM	> 100 µM	3060 nM	> 100	8.13 µM	> 100 µM	3730 nM	28.1 µM
CC(C)Oc1ccc(C(=O)Cn2ccnc2)cc1-n1c(CN2CCN(C(=O)COc3ccc(Cl)cc3)CC2)nc2ccccc2c1=O	12500 nM	30.3 µM	14800 nM	44.9 µM	14100 nM	29.9 µM	7480 nM	22.2 µM	4.04 µM	9.25 µM	1610 nM	3.14 µM	13.4 µM	50.9 µM	5770 nM	81.3	16.8 µM	33.7 µM	11500 nM	40.4 µM
Cc1cccc(N(CC(=O)O)S(=O)(=O)c2ccccc2)c1	–	> 100 µM	–	> 100 µM	–	> 100 µM	–	> 100 µM	–	> 100 µM	–	> 100 µM	–	> 100 µM	–	> 100	–	> 100 µM	–	> 100 µM
Cc1cccc(N=Nc2ccc(N=Nc3c(O)ccc4ccccc34)cc2C)c1	–	5.34 µM	–	> 100 µM	–	> 100 µM	–	> 100 µM	–	> 100 µM	–	> 100 µM	–	> 100 µM	–	> 100	–	> 100 µM	–	> 100 µM
CCOC(OC1=C(C#N)CCCC1)C(CC)[Se]c1ccccc1 (stereo not drawn)	–	> 100 µM	–	73.6 µM	–	61.8 µM	–	31.1 µM	–	> 100 µM	–	95.5 µM	–	–	–	> 100	–	34.2 µM	–	50.1 µM
